Results as given in patent US9701658B2, “Amide derivatives as TTX-S blockers” (RaQualia Pharma Inc., priority 2012, dated 2017).
pIC50, pKi: −log10 of the molar value.

Tests used:
Type in all cases: cell-based
human Nav1.7 = target: T1, human Nav1.7 (Homo sapiens, UniProt Q15858); assay: FRET assay, human Nav1.7 channels (CHO, EFS on FDSS); settings: read-out: activity (IC50) against Nav1.7
T1 construct: expressed in transfected cells; host or cells: CHO
Experimental: (§1) The ability of the amide derivatives of the formula (I) to inhibit the Nav1.3, Nav1.7 and Nav1.5 channels is measured by Fluorescence Resonance Energy Transfer (FRET) assay and electrophysiology assay described below.
(§2) This screen is used to determine the effects of compounds on human Nav1.3, human Nav1.7, and human Nav1.5 channels, utilizing electrical field stimulation (EFS) system in 96-well plate format on FDSS (Hamamatsu Photonics) platform. The change of membrane potential is monitored with FRET dye pair, oxonol (DiSBAC2(3)) and coumarin (CC2-DMPE).
CHO cells expressing human Nav1.7 channels are grown in T225 flasks, in a 5% CO2 humidified incubator to about 80% confluence. Media composition consists of HAM/F12 with Glutamax I, 10% FCS, 100 units/mL Penicillin and 100 microgram/mL Hygromycin. […]
(§3) The data are analyzed and reported as normalized ratios of intensities measured at […]. […]
(§4) This analysis is performed using a computerized specific program designed for FDSS generated data. Fluorescence ratio values are plotted using XLfit™ to determine an IC50 value for each compound.

human Nav1.3 = target: T2, human Nav1.3 (Homo sapiens, UniProt Q9NY46); assay: FRET assay, human Nav1.3 channels (HEK293, EFS on FDSS); settings: read-out: activity (IC50) against Nav1.3
T2 construct: expressed in transfected cells; host or cells: HEK293
T2 sequence (Q9NY46 whole entry): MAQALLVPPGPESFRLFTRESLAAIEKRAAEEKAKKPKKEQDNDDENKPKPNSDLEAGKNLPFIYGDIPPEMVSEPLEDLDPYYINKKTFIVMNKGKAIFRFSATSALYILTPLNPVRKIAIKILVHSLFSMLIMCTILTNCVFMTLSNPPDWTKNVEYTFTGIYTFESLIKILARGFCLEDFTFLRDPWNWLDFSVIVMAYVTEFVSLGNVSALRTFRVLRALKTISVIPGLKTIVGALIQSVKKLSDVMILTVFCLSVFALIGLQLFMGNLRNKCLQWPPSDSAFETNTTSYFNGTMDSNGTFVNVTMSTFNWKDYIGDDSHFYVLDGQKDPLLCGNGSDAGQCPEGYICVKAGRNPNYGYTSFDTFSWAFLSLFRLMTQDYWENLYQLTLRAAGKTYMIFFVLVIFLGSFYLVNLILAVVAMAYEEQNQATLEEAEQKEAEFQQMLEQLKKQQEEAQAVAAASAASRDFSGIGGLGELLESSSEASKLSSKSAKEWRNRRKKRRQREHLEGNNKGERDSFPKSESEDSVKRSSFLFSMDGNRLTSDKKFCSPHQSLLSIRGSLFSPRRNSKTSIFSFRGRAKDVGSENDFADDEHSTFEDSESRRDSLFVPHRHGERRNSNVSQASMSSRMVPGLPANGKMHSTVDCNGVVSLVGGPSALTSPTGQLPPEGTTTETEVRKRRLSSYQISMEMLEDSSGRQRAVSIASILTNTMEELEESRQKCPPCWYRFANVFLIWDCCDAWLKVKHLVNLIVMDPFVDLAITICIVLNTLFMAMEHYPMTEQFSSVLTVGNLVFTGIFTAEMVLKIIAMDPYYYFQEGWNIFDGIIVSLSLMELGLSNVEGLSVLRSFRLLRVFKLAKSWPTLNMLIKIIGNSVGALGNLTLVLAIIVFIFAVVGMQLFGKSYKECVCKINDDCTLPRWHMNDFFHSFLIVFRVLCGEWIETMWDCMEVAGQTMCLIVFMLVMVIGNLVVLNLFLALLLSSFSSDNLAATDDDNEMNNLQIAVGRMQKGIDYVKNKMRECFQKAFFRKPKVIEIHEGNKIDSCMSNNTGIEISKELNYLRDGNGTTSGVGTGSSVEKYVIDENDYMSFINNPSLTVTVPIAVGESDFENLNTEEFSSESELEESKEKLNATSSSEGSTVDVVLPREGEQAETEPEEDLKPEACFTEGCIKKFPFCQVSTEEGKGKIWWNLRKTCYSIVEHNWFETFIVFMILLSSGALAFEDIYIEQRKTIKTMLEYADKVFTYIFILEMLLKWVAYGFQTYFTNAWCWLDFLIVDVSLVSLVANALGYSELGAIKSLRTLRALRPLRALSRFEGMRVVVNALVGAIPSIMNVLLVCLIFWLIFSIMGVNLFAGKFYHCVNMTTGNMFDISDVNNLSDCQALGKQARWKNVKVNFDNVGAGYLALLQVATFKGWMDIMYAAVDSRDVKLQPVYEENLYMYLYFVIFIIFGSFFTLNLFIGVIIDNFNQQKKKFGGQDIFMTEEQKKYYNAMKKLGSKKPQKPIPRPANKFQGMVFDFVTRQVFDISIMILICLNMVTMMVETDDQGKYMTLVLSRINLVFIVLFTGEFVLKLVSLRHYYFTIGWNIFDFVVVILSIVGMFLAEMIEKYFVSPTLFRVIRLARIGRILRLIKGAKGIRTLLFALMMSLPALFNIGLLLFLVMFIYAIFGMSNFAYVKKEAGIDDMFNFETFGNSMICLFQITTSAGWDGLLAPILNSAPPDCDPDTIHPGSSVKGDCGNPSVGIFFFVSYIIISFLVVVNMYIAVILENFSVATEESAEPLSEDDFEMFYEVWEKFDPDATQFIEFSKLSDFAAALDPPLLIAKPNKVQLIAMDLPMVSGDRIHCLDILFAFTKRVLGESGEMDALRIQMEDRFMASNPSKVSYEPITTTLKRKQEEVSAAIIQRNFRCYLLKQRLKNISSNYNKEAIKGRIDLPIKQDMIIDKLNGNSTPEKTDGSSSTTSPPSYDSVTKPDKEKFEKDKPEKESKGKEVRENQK
Experimental: as §1, §2
(§5) Each HEK293 cells expressing human Nav1.3 channels and HEK293 cells expressing human Nav1.5 channels are grown in T225 flasks, in a 5% CO2 humidified incubator to about 80% confluence. Media composition consists of Dulbecco's Modified Eagle Medium (high glucose), 10% FCS, 100 units/mL Penicillin, 100 microgram/mL Streptomycin and 500 microgram/mL Geneticin™. […]
as §3, §4

human Nav1.5 = target: T3, human Nav1.5 (Homo sapiens, UniProt Q14524); assay: FRET assay, human Nav1.5 channels (HEK293, EFS on FDSS); settings: read-out: activity (IC50) against Nav1.5
T3 construct: expressed in transfected cells; host or cells: HEK293
T3 sequence (Q14524 whole entry): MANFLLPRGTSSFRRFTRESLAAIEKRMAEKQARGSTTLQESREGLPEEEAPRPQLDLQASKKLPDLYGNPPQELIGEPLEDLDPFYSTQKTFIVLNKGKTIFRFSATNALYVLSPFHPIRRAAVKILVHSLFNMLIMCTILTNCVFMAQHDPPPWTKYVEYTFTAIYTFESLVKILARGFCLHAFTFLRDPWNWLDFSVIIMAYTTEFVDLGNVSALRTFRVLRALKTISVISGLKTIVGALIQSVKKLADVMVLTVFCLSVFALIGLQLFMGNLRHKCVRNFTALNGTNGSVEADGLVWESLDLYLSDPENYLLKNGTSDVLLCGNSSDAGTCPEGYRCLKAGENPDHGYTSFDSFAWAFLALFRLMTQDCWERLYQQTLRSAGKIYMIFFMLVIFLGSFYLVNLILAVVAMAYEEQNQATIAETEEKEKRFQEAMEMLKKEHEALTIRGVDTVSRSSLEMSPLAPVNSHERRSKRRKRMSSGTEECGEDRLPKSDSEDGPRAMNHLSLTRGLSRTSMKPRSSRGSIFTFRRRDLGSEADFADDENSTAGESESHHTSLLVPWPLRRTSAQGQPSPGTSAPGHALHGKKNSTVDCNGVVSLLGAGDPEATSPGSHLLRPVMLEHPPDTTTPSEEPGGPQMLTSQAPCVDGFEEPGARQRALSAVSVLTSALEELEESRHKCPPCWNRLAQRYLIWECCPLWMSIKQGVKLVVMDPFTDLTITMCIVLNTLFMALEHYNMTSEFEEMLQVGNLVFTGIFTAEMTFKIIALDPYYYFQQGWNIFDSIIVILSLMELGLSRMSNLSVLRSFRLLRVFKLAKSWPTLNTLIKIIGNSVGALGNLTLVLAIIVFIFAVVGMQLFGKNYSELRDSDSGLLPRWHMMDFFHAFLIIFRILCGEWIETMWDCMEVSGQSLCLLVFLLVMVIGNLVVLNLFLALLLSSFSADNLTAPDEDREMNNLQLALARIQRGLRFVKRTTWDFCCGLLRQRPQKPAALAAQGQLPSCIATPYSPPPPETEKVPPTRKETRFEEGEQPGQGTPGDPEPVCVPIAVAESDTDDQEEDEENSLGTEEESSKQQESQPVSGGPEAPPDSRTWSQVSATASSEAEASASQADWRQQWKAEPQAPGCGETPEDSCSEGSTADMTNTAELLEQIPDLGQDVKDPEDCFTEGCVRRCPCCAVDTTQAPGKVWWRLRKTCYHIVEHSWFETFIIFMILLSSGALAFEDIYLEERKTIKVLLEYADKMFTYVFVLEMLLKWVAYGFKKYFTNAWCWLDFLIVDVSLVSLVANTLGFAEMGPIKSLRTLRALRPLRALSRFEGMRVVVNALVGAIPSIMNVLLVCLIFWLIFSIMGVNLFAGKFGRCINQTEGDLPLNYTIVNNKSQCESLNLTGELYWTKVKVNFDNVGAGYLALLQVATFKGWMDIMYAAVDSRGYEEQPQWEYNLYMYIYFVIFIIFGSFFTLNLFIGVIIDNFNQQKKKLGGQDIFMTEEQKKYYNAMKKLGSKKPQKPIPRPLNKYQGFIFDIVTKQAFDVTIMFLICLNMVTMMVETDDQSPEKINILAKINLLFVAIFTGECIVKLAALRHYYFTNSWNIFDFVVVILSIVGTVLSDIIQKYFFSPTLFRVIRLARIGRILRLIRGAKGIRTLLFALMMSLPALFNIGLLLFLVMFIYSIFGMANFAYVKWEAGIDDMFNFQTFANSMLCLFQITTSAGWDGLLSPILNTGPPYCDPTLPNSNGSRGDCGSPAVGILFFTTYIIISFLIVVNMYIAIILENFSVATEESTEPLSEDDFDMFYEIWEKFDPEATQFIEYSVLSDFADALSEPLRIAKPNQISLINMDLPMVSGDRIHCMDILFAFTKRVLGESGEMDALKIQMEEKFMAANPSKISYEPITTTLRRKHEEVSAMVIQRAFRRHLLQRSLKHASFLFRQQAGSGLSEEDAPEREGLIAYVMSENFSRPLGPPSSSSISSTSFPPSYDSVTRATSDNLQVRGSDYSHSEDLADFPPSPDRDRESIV
Experimental: as §1, §2, §5, §3, §4

human Nav1.7 (hSCN9A) = target: T4, human Nav1.7 (hSCN9A) (Homo sapiens, UniProt Q15858); assay: Electrophysiology assay for Navs, whole cell patch clamp, human Nav1.7 (hSCN9A) expressing CHO cells; settings: Kinact, read-out: activity (Ki) against Nav1.7, dissociation constant for the inactivated state
T4 construct: expressed in transfected cells; host or cells: CHO
Experimental: Electrophysiology Assay for Navs
Whole cell patch clamp recording is used to assess the efficacy or selectivity of Na channel blocker on human Nav1.3 (hSCN3A) expressing HEK293 cells or human Nv1.7 (hSCN9A) expressing CHO cells. Human Nav1.3 expressing HEK293 cells are grown in growth media which contain: Dulbecco's […] (DMEM), 10% heat-inactivated fetal bovine serum (FBS) (Hyclone Laboratories Inc), 100 microgram/mL Penicillin/100 U/mL Streptomycin, 150 microgram/mL Zeocin, 3 microgram/mL Geneticin. Human Nav1.7 expressing CHO cells are grown in growth media which comprised: HAM/F-12, 9% heat-inactivated FBS (Hyclone Laboratories Inc) and 100 microgram/mL Penicillin/100 U/mL Streptomycin, 100 microgram/mL Hygromycin.
Na channel expressing cells are dissociated by 0.05% trypsine-EDTA, and then seeded on cover glass for 24 to 48 hr. […]
The normalized steady-state inactivation curve is constructed using 2 sec (for vehicle) or 60 sec (for drugs) conditioning pulse to different potentials followed immediately by the test pulse to −10 mV. […] The affinity of drugs to resting state of Na channels (Kresting or Kr) is assessed by 30 msec test pulse from a negative holding potential of −120 or −130 mV, where virtually all channels are in the resting state. Kr value is calculated by a conventional 1:1 binding model: Kresting(Kr)={[drug]Imax,drug/(Imax,control−Imax,drug)} […]

| SMILES | pIC50 (human Nav1.7) | pIC50 (human Nav1.3) | pIC50 (human Nav1.5) | pKi (human Nav1.7 (hSCN9A)) |
| --- | --- | --- | --- | --- |
| CCC(=O)Nc1cc(CNC(=O)c2ccc(OCC(F)(F)F)nc2)cc(C)n1 [Example 12, N-((2-methyl-6-propionamidopyridin-4-yl)methyl)-6-(2,2,2-trifluoroethoxy) nicotinamide] | 6.00 | 6.29 | < 4.52 |  |
| CC(=O)Nc1cc(C(C)NC(=O)c2ccc(OCC(F)(F)F)cn2)cc(C)n1 (single isomer, unassigned) [Example 29, N-(1-(2-acetamido-6-methylpyridin-4-yl)ethyl)-5-(2,2,2-trifluoroethoxy) picolinamide] |  |  |  | 6.02 |
